In general, Ki refers to a dissociation constant, usually derived from enzyme kinetics or from competition with a known ligand. High values mean lower affinity, low ones higher affinity.

This experiment addresses 5-hydroxytryptamine receptor 4 (Rattus norvegicus, UniProt Q62758).

Chain of 5-hydroxytryptamine receptor 4 (Q62758 whole entry): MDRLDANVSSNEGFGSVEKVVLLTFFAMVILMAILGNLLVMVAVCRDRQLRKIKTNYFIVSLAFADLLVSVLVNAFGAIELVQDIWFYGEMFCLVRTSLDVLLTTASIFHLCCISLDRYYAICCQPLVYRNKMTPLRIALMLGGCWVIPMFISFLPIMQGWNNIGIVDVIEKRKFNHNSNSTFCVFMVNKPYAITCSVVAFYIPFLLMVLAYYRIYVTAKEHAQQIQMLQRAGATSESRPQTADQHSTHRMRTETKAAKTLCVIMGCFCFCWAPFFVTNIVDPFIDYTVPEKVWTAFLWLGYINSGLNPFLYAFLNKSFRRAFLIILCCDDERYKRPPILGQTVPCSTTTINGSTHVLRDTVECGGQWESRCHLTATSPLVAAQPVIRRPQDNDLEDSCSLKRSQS

For `Cn1cc(CCN)c2cc(O)ccc21` [5-HT,omega-N-Me], the inhibitory constant (Ki) stood at 1.45 µM.

With `O=C(c1ccc(F)cc1)C1CCN(CCn2c(=O)[nH]c3ccccc3c2=O)CC1` [3-(2-{4-[(4-fluorophenyl)carbonyl]piperidin-1-yl}ethyl)-1,2,3,4-tetrahydroquinazoline-2,4-dione], the inhibitory constant (Ki) turned out to be 1 µM.

The compound `CCCN(CCC)C1CCc2cccc(O)c2C1` (centres undefined) displayed a Ki of 1 µM.

Compound `COc1ccc2[nH]cc(CCN)c2c1` [tryptamine, 5-Methoxy] displayed an inhibitory constant (Ki) of 0.401 µM.

`CN1C2CCC1CC(OC(=O)c1c[nH]c3ccccc13)C2` (centres undefined) displayed an inhibition constant (Ki) of 0.544 µM. The Ki values of the last two compounds are within 1.5-fold of each other.

Take `COc1cc(N)c(Cl)cc1C(=O)NC1CCN2CCCC1C2` (centres undefined) [NSC_3035240]: the inhibition constant Ki amounted to 0.243 µM.

As for `COc1cc(N)c(Cl)cc1C(=O)NC1CN2CCC1CC2` (centres undefined) [ZACOPRIDE,R], the affinity, expressed as Ki, was 0.808 µM. Compared with the last compound, the Ki is about 3.3-fold higher.

`CCN(CC)C(=O)[C@@H]1C=C2c3cccc4[nH]cc(c34)C[C@H]2N(C)C1` [(4R,7R)-N,N-diethyl-6-methyl-6,11-diazatetracyclo[7.6.1.0^{2,7}.0^{12,16}]hexadeca-1(16),2,9,12,14-pentaene-4-carboxamide] registered an inhibition constant Ki of 1 µM.

`CNS(=O)(=O)Cc1ccc2[nH]cc(CCN(C)C)c2c1` [Sumax] gave an inhibition constant Ki of 1 µM.

Values taken from BindingDB's records for PubMed 7796807 (Synaptic Pharmaceutical, 1995).
